{"source": "patent US8871946B2", "about": "“Benzimidazole-4-carboxamide derivatives, their preparation methods, pharmaceutical compositions and their uses” (Zhejiang Medicine Co., Ltd. Xinchang Pharmaceutical Factory, priority 2009, dated 2014)", "tested_on": "coxsackie B3 viruses", "assay": "Measures of anti-coxsackie B3 viruses activity of the compounds in Vero cells", "assay_type": "cell-based", "source_text": "Measures of Anti-Coxsackie B3 Viruses Activity of the Compounds The products are applied for measures of antivirus properties of Vero cells. Refer to the results of Table 3: datum of anti-coxsackie B3 viruses activities of some compounds. […] IC50 indicates half inhibitory concentration for viruses. RBV indicates triazole nucleoside, is also called ribavirin, virazole.", "key": {"[1]": {"conditions": "half inhibitory concentration for viruses"}}, "note": "Read-outs that look alike come from different tables or passages of the source."}
{"smiles": "COc1cccc(-c2nc3c(C(=O)NC(CO)C(O)c4ccc([N+](=O)[O-])cc4)cccc3[nH]2)n1", "note": "(stereo not shown) [(L)-2-(6-methoxypyridyl)-1H-benzimidazole-4-[N-(1-hydroxymethyl-2-p-nitrophenylhydroxyethyl)]amide]", "values": [{"measurement": "IC50", "setting": "[1]", "value": 11.2, "unit": "µg/mL"}]}
{"smiles": "Nc1ncnc(Cl)c1-c1nc2c(C(=O)Nc3ccccc3F)cccc2[nH]1", "note": "[2-(4-amino-6-chloro-5-pyrimidinyl)-1H-benzimidazole-4-(N-o-fluorophenyl)amide]", "values": [{"measurement": "IC50", "setting": "[1]", "value": 11.3, "unit": "µg/mL"}]}
{"smiles": "O=C(Nc1ccccc1O)c1cccc2[nH]c(-c3ncccn3)nc12", "note": "[2-(2-pyrimidinyl)-1H-benzimidazole-4-(N-o-hydroxyphenyl)amide]", "values": [{"measurement": "IC50", "setting": "[1]", "value": 7.8, "unit": "µg/mL"}]}
{"smiles": "O=C(Nc1ccccc1F)c1cccc2[nH]c(-c3cnc(-c4ccccc4)nc3)nc12", "note": "[2-(2-phenyl-5-pyrimidinyl)-1H-benzimidazole-4-(N-o-fluorophenyl)amide]", "values": [{"measurement": "IC50", "setting": "[1]", "value": 12.6, "unit": "µg/mL"}]}
{"smiles": "Cc1cc(C)c(-c2nc3c(C(=O)Nc4ccccc4O)cccc3[nH]2)[nH]1", "note": "[2-(3,5-dimethyl-2-pyrrolyl)-1H-benzimidazole-4-(N-o-hydroxyphenyl)amide]", "values": [{"measurement": "IC50", "setting": "[1]", "value": 10.2, "unit": "µg/mL"}]}
{"smiles": "O=C(NC(CO)C(O)c1ccc([N+](=O)[O-])cc1)c1cccc2[nH]c(-c3ccc[nH]3)nc12", "note": "(stereo not shown) [(L)-2-(2-pyrrolyl)-1H-benzimidazole-4-[N-(1-hydroxymethyl-2-p-nitrophenylhydroxyethyl)]amide]", "values": [{"measurement": "IC50", "setting": "[1]", "value": 5.3, "unit": "µg/mL"}]}
{"smiles": "O=C(Nc1ccc(O)cc1)c1cccc2[nH]c(-c3ccc(O)c(O)c3O)nc12", "note": "[2-(2,3,4-trihydroxyphenyl)-1H-benzimidazole-4-(N-p-hydroxyphenyl)amide]", "values": [{"measurement": "IC50", "setting": "[1]", "value": 11.2, "unit": "µg/mL"}]}
{"smiles": "O=C(NC(CO)C(O)c1ccc([N+](=O)[O-])cc1)c1cccc2[nH]c(-c3cnccn3)nc12", "note": "(stereo not shown) [(L)-2-(2-pyrazinyl)-1H-benzimidazole-4-[N-(1-hydroxymethyl-2-p-nitrophenylhydroxyethyl)]amide]", "values": [{"measurement": "IC50", "setting": "[1]", "value": 2.3, "unit": "µg/mL"}]}
{"smiles": "O=C(Nc1ccccc1F)c1cccc2[nH]c(-c3cccnn3)nc12", "note": "[2-(3-pyridazinyl)-1H-benzimidazole-4-(N-o-fluorophenyl)amide]", "values": [{"measurement": "IC50", "setting": "[1]", "value": 12.3, "unit": "µg/mL"}]}
{"smiles": "CN(C)c1ccnc(-c2nc3c(C(=O)NC(CO)C(O)c4ccc([N+](=O)[O-])cc4)cccc3[nH]2)c1", "note": "(stereo not shown) [(L)-2-(4-dimethylaminopyridyl)-1H-benzimidazole-4-[N-(1-hydroxymethyl-2-p-nitrophenylhydroxyethyl)]amide]", "values": [{"measurement": "IC50", "setting": "[1]", "value": 10.2, "unit": "µg/mL"}]}
{"smiles": "CC(NC(=O)c1cccc2[nH]c(-c3cccnc3)nc12)C(O)c1ccc(Cl)cc1", "note": "(stereo not shown) [2-(3-pyridyl)-1H-benzimidazole-4-[N-(1-methyl-2-p-chlorophenylhydroxyethyl)]amide]", "values": [{"measurement": "IC50", "setting": "[1]", "value": 2.37, "unit": "µg/mL"}]}
{"smiles": "COc1ccnc(-c2nc3c(C(=O)NC(CO)C(O)c4ccc([N+](=O)[O-])cc4)cccc3[nH]2)c1", "note": "(stereo not shown) [(L)-2-(4-methoxypyridyl)-1H-benzimidazole-4-[N-(1-hydroxymethyl-2-p-nitrophenylhydroxyethyl)]amide]", "values": [{"measurement": "IC50", "setting": "[1]", "value": 6.3, "unit": "µg/mL"}]}
{"smiles": "O=C(NC(CO)C(O)c1ccc([N+](=O)[O-])cc1)c1cccc2[nH]c(-c3cnc(-c4ccccc4)nc3)nc12", "note": "(stereo not shown) [(L)-2-(2-phenyl-5-pyrimidinyl)-1H-benzimidazole-4-[N-(1-hydroxymethyl-2-p-nitrophenylhydroxyethyl)]amide]", "values": [{"measurement": "IC50", "setting": "[1]", "value": 12.0, "unit": "µg/mL"}]}
{"smiles": "COc1ccnc(-c2nc3c(C(=O)Nc4ccc(N)cc4)cccc3[nH]2)c1", "note": "[2-(4-methoxypyridyl)-1H-benzimidazole-4-(N-p-aminophenyl)amide]", "values": [{"measurement": "IC50", "setting": "[1]", "value": 13.4, "unit": "µg/mL"}]}
{"smiles": "CN1CCN(C)C(c2nc3c(C(=O)Nc4ccc(N)cc4)cccc3[nH]2)C1", "note": "(stereo not shown) [2-(2-N-methyl-4-N-methylpiperazinyl)-1H-benzimidazole-4-(N-p-aminophenyl)amide]", "values": [{"measurement": "IC50", "setting": "[1]", "value": 3.5, "unit": "µg/mL"}]}
{"smiles": "O=C(Nc1ccccc1F)c1cccc2[nH]c(-c3ccc[nH]3)nc12", "note": "[2-(2-pyrrolyl)-1H-benzimidazole-4-(N-o-fluorophenyl)amide]", "values": [{"measurement": "IC50", "setting": "[1]", "value": 9.2, "unit": "µg/mL"}]}
{"smiles": "O=C(Nc1ccccc1O)c1cccc2[nH]c(-c3cccnn3)nc12", "note": "[2-(3-pyridazinyl)-1H-benzimidazole-4-(N-o-hydroxyphenyl)amide]", "values": [{"measurement": "IC50", "setting": "[1]", "value": 15.2, "unit": "µg/mL"}]}
{"smiles": "Cn1cccc1-c1nc2c(C(=O)Nc3ccccc3F)cccc2[nH]1", "note": "[2-(N-methyl-2-pyrrolyl)-1H-benzimidazole-4-(N-o-fluorophenyl)amide]", "values": [{"measurement": "IC50", "setting": "[1]", "value": 13.2, "unit": "µg/mL"}]}
{"smiles": "O=C(NC(CO)C(O)c1ccc([N+](=O)[O-])cc1)c1cccc2[nH]c(-c3cccnn3)nc12", "note": "(stereo not shown) [(L)-2-(3-pyridazinyl)-1H-benzimidazole-4-[N-(1-hydroxymethyl-2-p-nitrophenylhydroxyethyl)]amide]", "values": [{"measurement": "IC50", "setting": "[1]", "value": 5.8, "unit": "µg/mL"}]}
{"smiles": "Nc1ccc(NC(=O)c2cccc3[nH]c(-c4c(N)ncnc4Cl)nc23)cc1", "note": "[2-(4-amino-6-chloro-5-pyrimidinyl)-1H-benzimidazole-4-(N-p-aminophenyl)amide]", "values": [{"measurement": "IC50", "setting": "[1]", "value": 14.1, "unit": "µg/mL"}]}
{"smiles": "O=C(NC(CO)C(O)c1ccc([N+](=O)[O-])cc1)c1cccc2[nH]c(-c3cccs3)nc12", "note": "(stereo not shown) [(L)-2-(2-thienyl)-1H-benzimidazole-4-[N-(1-hydroxymethyl-2-p-nitrophenylhydroxyethyl)]amide]", "values": [{"measurement": "IC50", "setting": "[1]", "value": 15.90, "unit": "µg/mL"}]}
{"smiles": "O=C(Nc1ccccc1O)c1cccc2[nH]c(-c3cnc(-c4ccccc4)nc3)nc12", "note": "[2-(2-phenyl-5-pyrimidinyl)-1H-benzimidazole-4-(N-o-hydroxyphenyl)amide]", "values": [{"measurement": "IC50", "setting": "[1]", "value": 13.2, "unit": "µg/mL"}]}
{"smiles": "Nc1ccc(-c2nc3c(C(=O)Nc4ccccc4F)cccc3[nH]2)s1", "note": "[2-(5-amino-2-thienyl)-1H-benzimidazole-4-(N-o-fluorophenyl)amide]", "values": [{"measurement": "IC50", "setting": "[1]", "value": 3.5, "unit": "µg/mL"}]}
{"smiles": "Cc1nc(-c2nc3c(C(=O)Nc4ccc(N)cc4)cccc3[nH]2)sc1N", "note": "[2-(4-methyl-5-aminothiazolyl)-1H-benzimidazole-4-(N-p-aminophenyl)amide]", "values": [{"measurement": "IC50", "setting": "[1]", "value": 9.8, "unit": "µg/mL"}]}
{"smiles": "CN1CCN(C)C(c2nc3c(C(=O)NC(CO)C(O)c4ccc([N+](=O)[O-])cc4)cccc3[nH]2)C1", "note": "(stereo not shown) [(L)-2-(2-N-methyl-4-N-methylpiperazinyl)-1H-benzimidazole-4-[N-(1-hydroxymethyl-2-p-nitrophenylhydroxyethyl)]amide]", "values": [{"measurement": "IC50", "setting": "[1]", "value": 9.2, "unit": "µg/mL"}]}
{"smiles": "O=C(Nc1ccccc1F)c1cccc2[nH]c(-c3cnccn3)nc12", "note": "[2-(2-pyrazinyl)-1H-benzimidazole-4-(N-o-fluorophenyl)amide]", "values": [{"measurement": "IC50", "setting": "[1]", "value": 6.5, "unit": "µg/mL"}]}
{"smiles": "O=C(Nc1ccccc1F)c1cccc2[nH]c(-c3cccs3)nc12", "note": "[2-thienyl-1H-benzimidazole-4-(N-(2-fluorophenyl)-amide]", "values": [{"measurement": "IC50", "setting": "[1]", "value": 1.06, "unit": "µg/mL"}]}
{"smiles": "CC(NC(=O)c1cccc2[nH]c(-c3cccs3)nc12)C(O)c1ccc(Cl)cc1", "note": "(stereo not shown) [2-(2-thienyl)-1H-benzimidazole-4-[N-(1-methyl-2-p-chlorophenylhydroxyethyl)]amide]", "values": [{"measurement": "IC50", "setting": "[1]", "value": 5.30, "unit": "µg/mL"}]}
{"smiles": "O=C(Nc1ccccc1O)c1cccc2[nH]c(-c3cnccn3)nc12", "note": "[2-(2-pyrazinyl)-1H -benzimidazole-4-(N-o-hydroxyphenyl)amide]", "values": [{"measurement": "IC50", "setting": "[1]", "value": 3.5, "unit": "µg/mL"}]}
{"smiles": "O=C(NC(CO)C(O)c1ccc([N+](=O)[O-])cc1)c1cccc2[nH]c(-c3ccc([N+](=O)[O-])s3)nc12", "note": "(stereo not shown) [(L)-2-(5-nitro-2-thienyl)-1H-benzimidazole-4-[N-(1-hydroxymethyl-2-p-nitrophenylhydroxyethyl)]amide]", "values": [{"measurement": "IC50", "setting": "[1]", "value": 10.69, "unit": "µg/mL"}]}
{"smiles": "O=C(NC(CO)C(O)c1ccc([N+](=O)[O-])cc1)c1cccc2[nH]c(-c3ncccn3)nc12", "note": "(stereo not shown) [(L)-2-(2-pyrimidinyl)-1H-benzimidazole-4-[N-(1-hydroxymethyl-2-p-nitrophenylhydroxyethyl)]amide]", "values": [{"measurement": "IC50", "setting": "[1]", "value": 9.8, "unit": "µg/mL"}]}
{"smiles": "COc1ccnc(-c2nc3c(C(=O)Nc4ccccc4O)cccc3[nH]2)c1", "note": "[2-(4-methoxypyridyl)-1H-benzimidazole-4-(N-o-hydroxyphenyl)amide]", "values": [{"measurement": "IC50", "setting": "[1]", "value": 16.2, "unit": "µg/mL"}]}
{"smiles": "O=C(Nc1ccccc1F)c1cccc2[nH]c(-c3ccc4ccccc4n3)nc12", "note": "[2-(2-quinolinyl)-1H-benzimidazole-4-(N-o-fluorophenyl)amide]", "values": [{"measurement": "IC50", "setting": "[1]", "value": 15.3, "unit": "µg/mL"}]}
{"smiles": "Nc1ncnc(Cl)c1-c1nc2c(C(=O)Nc3ccccc3O)cccc2[nH]1", "note": "[2-(4-amino-6-chloro-5-pyrimidinyl)-1H-benzimidazole-4-(N-o-hydroxyphenyl)amide]", "values": [{"measurement": "IC50", "setting": "[1]", "value": 12.3, "unit": "µg/mL"}]}
{"smiles": "O=C(NC(CO)C(O)c1ccc([N+](=O)[O-])cc1)c1cccc2[nH]c(-c3nccs3)nc12", "note": "(stereo not shown) [(L)-2-thiazolyl-1H-benzimidazole-4-[N-(1-hydroxymethyl-2-p-nitrophenylhydroxyethyl)]amide]", "values": [{"measurement": "IC50", "setting": "[1]", "value": 11.2, "unit": "µg/mL"}]}
{"smiles": "NC(=O)c1ncn([C@@H]2O[C@H](CO)[C@@H](O)[C@H]2O)n1", "note": "[RBV, ribavirin, reference compound]", "values": [{"measurement": "IC50", "setting": "Enterovirus B, B3, half inhibitory concentration for viruses, read-out: IC50", "value": 354, "unit": "µg/mL"}]}
{"smiles": "O=C(NC(CO)C(O)c1ccccc1[N+](=O)[O-])c1cccc2[nH]c(N3CCNCC3)nc12", "note": "(stereo not shown) [(L)-2-N-piperazinyl-1H-benzimidazole-4-[N-(1-hydroxymethyl-2-o-nitrophenylhydroxyethyl)]amide]", "values": [{"measurement": "IC50", "setting": "[1]", "value": 4.2, "unit": "µg/mL"}]}
{"smiles": "Cc1ccccc1NC(=O)c1cccc2[nH]c(-c3ccc(N)s3)nc12", "note": "[2-(5-amino-2-thienyl)-1H-benzimidazole-4-(N-o-methylphenyl)amide]", "values": [{"measurement": "IC50", "setting": "[1]", "value": 8.7, "unit": "µg/mL"}]}
{"smiles": "Nc1ccc(NC(=O)c2cccc3[nH]c(-c4cncs4)nc23)cc1", "note": "[5-thiazolyl-1H-benzimidazole-4-(N-p-aminophenyl)amide]", "values": [{"measurement": "IC50", "setting": "[1]", "value": 13.5, "unit": "µg/mL"}]}
{"smiles": "O=C(Nc1ccccc1F)c1cccc2[nH]c(N3CCNCC3)nc12", "note": "[2-N-piperazinyl-1H-benzimidazole-4-(N-o-fluorophenyl)amide]", "values": [{"measurement": "IC50", "setting": "[1]", "value": 4.8, "unit": "µg/mL"}]}
{"smiles": "Nc1ccc(-c2nc3c(C(=O)NC(CO)C(O)c4ccc([N+](=O)[O-])cc4)cccc3[nH]2)s1", "note": "(stereo not shown) [(L)-2-(5-amino-2-thienyl)-1H-benzimidazole-4-[N-(1-hydroxymethyl-2-p-nitrophenylhydroxyethyl)]amide]", "values": [{"measurement": "IC50", "setting": "[1]", "value": 2.3, "unit": "µg/mL"}]}
{"smiles": "Nc1ccc(-c2nc3c(C(=O)Nc4ccc(O)cc4)cccc3[nH]2)s1", "note": "[2-(5-amino-2-thienyl)-1H-benzimidazole-4-(N-p-hydroxyphenyl)amide]", "values": [{"measurement": "IC50", "setting": "[1]", "value": 6.5, "unit": "µg/mL"}]}
{"smiles": "O=C(Nc1ccccc1F)c1cccc2[nH]c(-c3ncccn3)nc12", "note": "[2-(2-pyrimidinyl)-1H-benzimidazole-4-(N-o-fluorophenyl)amide]", "values": [{"measurement": "IC50", "setting": "[1]", "value": 8.8, "unit": "µg/mL"}]}
